Assay results: PubChem BioAssay AID1918996 (Molecular Pharmacology Branch, DTP, NCI, 2023)

System: 349418-098-R-PDC complex spheroid growth
Assay: Anticancer human tumor 349418-098-R-PDC patient-derived lung adenocarcinoma cell line growth inhibition [AhR]
Details: for IC50: curve of first compound; for viability, T/C: stronger effect = lower value; active means viability on the fitted dose curve at most 10% of control; inactive means the rest
Procedure, shortened: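 Agents were dosed in half-log steps down from roughly clinical Cmax, or from 10 microM where Cmax was unknown, alone and with AhR antagonists. Read-out: percent test/control growth of tumor spheroids containing HUVEC and MSC stromal cells.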

[1] = second compound 0.1 µM, first compound 0.000949 µM
[2] = second compound 0.1 µM, first compound 0.003 µM
[3] = second compound 0.1 µM, first compound 0.00949 µM
[4] = second compound 0.1 µM, first compound 0.03 µM
[5] = second compound 0.1 µM, first compound 0.0949 µM
[6] = second compound 0.1 µM, first compound 0.3 µM
[7] = second compound 0.316 µM, first compound 0.000949 µM
[8] = second compound 0.316 µM, first compound 0.003 µM
[9] = second compound 0.316 µM, first compound 0.00949 µM
[10] = second compound 0.316 µM, first compound 0.03 µM
[11] = second compound 0.316 µM, first compound 0.0949 µM
[12] = second compound 0.316 µM, first compound 0.3 µM
[13] = second compound 1 µM, first compound 0.000949 µM
[14] = second compound 1 µM, first compound 0.003 µM
[15] = second compound 1 µM, first compound 0.00949 µM
[16] = second compound 1 µM, first compound 0.03 µM
[17] = second compound 1 µM, first compound 0.0949 µM
[18] = second compound 1 µM, first compound 0.3 µM
[19] = second compound 3.16 µM, first compound 0.000949 µM
[20] = second compound 3.16 µM, first compound 0.003 µM
[21] = second compound 3.16 µM, first compound 0.00949 µM
[22] = second compound 3.16 µM, first compound 0.03 µM
[23] = second compound 3.16 µM, first compound 0.0949 µM
[24] = second compound 3.16 µM, first compound 0.3 µM
[25] = second compound 10 µM, first compound 0.000949 µM
[26] = second compound 10 µM, first compound 0.003 µM
[27] = second compound 10 µM, first compound 0.00949 µM
[28] = second compound 10 µM, first compound 0.03 µM
[29] = second compound 10 µM, first compound 0.0949 µM
[30] = second compound 10 µM, first compound 0.3 µM
[31] = second compound 0.1 µM, first compound 0.0316 µM
[32] = second compound 0.1 µM, first compound 0.1 µM
[33] = second compound 0.1 µM, first compound 0.316 µM
[34] = second compound 0.1 µM, first compound 1 µM
[35] = second compound 0.1 µM, first compound 3.16 µM
[36] = second compound 0.1 µM, first compound 10 µM
[37] = second compound 0.316 µM, first compound 0.0316 µM
[38] = second compound 0.316 µM, first compound 0.1 µM
[39] = second compound 0.316 µM, first compound 0.316 µM
[40] = second compound 0.316 µM, first compound 1 µM
[41] = second compound 0.316 µM, first compound 3.16 µM
[42] = second compound 0.316 µM, first compound 10 µM
[43] = second compound 1 µM, first compound 0.0316 µM
[44] = second compound 1 µM, first compound 0.1 µM
[45] = second compound 1 µM, first compound 0.316 µM
[46] = second compound 1 µM, first compound 1 µM
[47] = second compound 1 µM, first compound 3.16 µM
[48] = second compound 1 µM, first compound 10 µM
[49] = second compound 3.16 µM, first compound 0.0316 µM
[50] = second compound 3.16 µM, first compound 0.1 µM
[51] = second compound 3.16 µM, first compound 0.316 µM
[52] = second compound 3.16 µM, first compound 1 µM
[53] = second compound 3.16 µM, first compound 3.16 µM
[54] = second compound 3.16 µM, first compound 10 µM
[55] = second compound 10 µM, first compound 0.0316 µM
[56] = second compound 10 µM, first compound 0.1 µM
[57] = second compound 10 µM, first compound 0.316 µM
[58] = second compound 10 µM, first compound 1 µM
[59] = second compound 10 µM, first compound 3.16 µM
[60] = second compound 10 µM, first compound 10 µM
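Further: spheroids exposed to agents for seven days before luminescence viability read.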
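Wherever viability, T/C is given: spheroids also contain HUVEC endothelial cells and human MSC stroma.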

CC(C)CC(NC(=O)C(Cc1ccccc1)NC(=O)c1cnccn1)B(O)O (stereo not given) + Cc1cncc(-c2nc(NCCc3c[nH]c4ccccc34)c3ncn(C(C)C)c3n2)c1
1.28 nM: IC50 (second compound 0.316 µM)
1.41 nM: IC50 (second compound 0.1 µM)
active: viability, T/C [3] 1.67% | viability, T/C [4] 0.88% | viability, T/C [5] 0.78% | viability, T/C [6] 0.75% | viability, T/C [8] 8.44% | viability, T/C [9] 1.59% | viability, T/C [10] 0.9% | viability, T/C [11] 0.92% | viability, T/C [12] 0.62% | viability, T/C [14] 9.85% | viability, T/C [15] 1.7% | viability, T/C [16] 0.85% | viability, T/C [17] 0.77% | viability, T/C [18] 1.06% | viability, T/C [20] 5.89% | viability, T/C [21] 1.01% | viability, T/C [22] 0.57% | viability, T/C [23] 0.58% | viability, T/C [24] 0.62% | viability, T/C [25] 2.07% | viability, T/C [26] 1.16% | viability, T/C [27] 0.23% | viability, T/C [28] 0.14% | viability, T/C [29] 0.11% | viability, T/C [30] 0.15%
< 0.949 nM: IC50 (second compound 3.16 µM) | IC50 (second compound 10 µM)
inactive: viability, T/C [1] 70.6% | viability, T/C [2] 11.2% | viability, T/C [7] 64.6% | viability, T/C [13] 54.1% | viability, T/C [19] 20.6%
1.06 nM: IC50 (second compound 1 µM)

CCc1c2c(nc3ccc(O)cc13)-c1cc3c(c(=O)n1C2)COC(=O)[C@]3(O)CC + Cc1cncc(-c2nc(NCCc3c[nH]c4ccccc34)c3ncn(C(C)C)c3n2)c1
< 0.949 nM: IC50 (second compound 0.1 µM) | IC50 (second compound 0.316 µM) | IC50 (second compound 1 µM) | IC50 (second compound 3.16 µM) | IC50 (second compound 10 µM)
active: viability, T/C [3] 6.34% | viability, T/C [4] 3.54% | viability, T/C [5] 2.3% | viability, T/C [6] 1.59% | viability, T/C [9] 5.66% | viability, T/C [10] 3.5% | viability, T/C [11] 2.11% | viability, T/C [12] 1.51% | viability, T/C [15] 5.54% | viability, T/C [16] 3.53% | viability, T/C [17] 2.48% | viability, T/C [18] 1.41% | viability, T/C [20] 6.98% | viability, T/C [21] 3.19% | viability, T/C [22] 2.37% | viability, T/C [23] 1.61% | viability, T/C [24] 1.27% | viability, T/C [25] 1.19% | viability, T/C [26] 1.44% | viability, T/C [27] 0.76% | viability, T/C [28] 0.65% | viability, T/C [29] 0.41% | viability, T/C [30] 0.29%
inactive: viability, T/C [1] 49.5% | viability, T/C [2] 24.2% | viability, T/C [7] 47.7% | viability, T/C [8] 16.8% | viability, T/C [13] 41.9% | viability, T/C [14] 14.4% | viability, T/C [19] 12.8%

COc1cc(Nc2ncc3c(n2)-c2ccc(Cl)cc2C(c2c(F)cccc2OC)=NC3)ccc1C(=O)O + Cc1cncc(-c2nc(NCCc3c[nH]c4ccccc34)c3ncn(C(C)C)c3n2)c1
inactive: viability, T/C [31] 68.8% | viability, T/C [32] 58.2% | viability, T/C [33] 42.4% | viability, T/C [34] 40.8% | viability, T/C [35] 36.3% | viability, T/C [36] 33.1% | viability, T/C [37] 72.6% | viability, T/C [38] 68.6% | viability, T/C [39] 44.4% | viability, T/C [40] 47.8% | viability, T/C [41] 41.1% | viability, T/C [42] 43.9% | viability, T/C [43] 67.7% | viability, T/C [44] 57.3% | viability, T/C [45] 46.7% | viability, T/C [46] 48.8% | viability, T/C [47] 40.3% | viability, T/C [48] 44.8% | viability, T/C [49] 19.7% | viability, T/C [50] 20% | viability, T/C [51] 14.1% | viability, T/C [52] 12.7% | viability, T/C [53] 14.7% | viability, T/C [54] 17.9%
195 nM: IC50 (second compound 0.1 µM)
242 nM: IC50 (second compound 0.316 µM)
267 nM: IC50 (second compound 1 µM)
< 31.6 nM: IC50 (second compound 3.16 µM) | IC50 (second compound 10 µM)
active: viability, T/C [55] 3.34% | viability, T/C [56] 2.89% | viability, T/C [57] 2.53% | viability, T/C [58] 2.17% | viability, T/C [59] 2.59% | viability, T/C [60] 3.53%

Nc1ccccc1NC(=O)c1ccc(CNC(=O)OCc2cccnc2)cc1 + Cc1cncc(-c2nc(NCCc3c[nH]c4ccccc34)c3ncn(C(C)C)c3n2)c1
active: viability, T/C [36] 4.89% | viability, T/C [42] 4.93% | viability, T/C [48] 4.95% | viability, T/C [52] 12.1% | viability, T/C [53] 7.68% | viability, T/C [54] 2.59% | viability, T/C [55] 1% | viability, T/C [56] 1.06% | viability, T/C [57] 0.67% | viability, T/C [58] 0.76% | viability, T/C [59] 0.51% | viability, T/C [60] 0.34%
612 nM: IC50 (second compound 0.1 µM)
759 nM: IC50 (second compound 0.316 µM)
< 31.6 nM: IC50 (second compound 3.16 µM) | IC50 (second compound 10 µM)
inactive: viability, T/C [31] 79.9% | viability, T/C [32] 69.6% | viability, T/C [33] 58.4% | viability, T/C [34] 46.7% | viability, T/C [35] 19.9% | viability, T/C [37] 69.7% | viability, T/C [38] 73.5% | viability, T/C [39] 57.3% | viability, T/C [40] 47.7% | viability, T/C [41] 25.6% | viability, T/C [43] 72.6% | viability, T/C [44] 67.5% | viability, T/C [45] 54.9% | viability, T/C [46] 43.2% | viability, T/C [47] 20.1% | viability, T/C [49] 12.8% | viability, T/C [50] 15.7% | viability, T/C [51] 9.2%
517 nM: IC50 (second compound 1 µM)

O=C(C=Cc1cccc(S(=O)(=O)Nc2ccccc2)c1)NO + Cc1cncc(-c2nc(NCCc3c[nH]c4ccccc34)c3ncn(C(C)C)c3n2)c1
598 nM: IC50 (second compound 1 µM)
682 nM: IC50 (second compound 0.1 µM)
< 31.6 nM: IC50 (second compound 3.16 µM) | IC50 (second compound 10 µM)
inactive: viability, T/C [31] 90.6% | viability, T/C [32] 79.1% | viability, T/C [33] 67.8% | viability, T/C [34] 43.2% | viability, T/C [35] 13.2% | viability, T/C [37] 85.2% | viability, T/C [38] 68.9% | viability, T/C [39] 59.3% | viability, T/C [40] 43.5% | viability, T/C [41] 11.3% | viability, T/C [43] 76.4% | viability, T/C [44] 75.8% | viability, T/C [45] 61.1% | viability, T/C [46] 41.3% | viability, T/C [47] 10.3% | viability, T/C [49] 30.8% | viability, T/C [50] 34.8% | viability, T/C [51] 37.9% | viability, T/C [52] 22.7% | viability, T/C [53] 7.91%
active: viability, T/C [36] 1.82% | viability, T/C [42] 1.83% | viability, T/C [48] 1.94% | viability, T/C [54] 1.33% | viability, T/C [55] 3.17% | viability, T/C [56] 3.68% | viability, T/C [57] 2.97% | viability, T/C [58] 1.98% | viability, T/C [59] 1.53% | viability, T/C [60] 0.75%
524 nM: IC50 (second compound 0.316 µM)

O=C(c1cc(Cc2n[nH]c(=O)c3ccccc23)ccc1F)N1CCN(C(=O)C2CC2)CC1 + Cc1cncc(-c2nc(NCCc3c[nH]c4ccccc34)c3ncn(C(C)C)c3n2)c1
inactive: viability, T/C [31] 75.7% | viability, T/C [32] 91.6% | viability, T/C [33] 98.3% | viability, T/C [34] 89.9% | viability, T/C [35] 75.2% | viability, T/C [36] 58.8% | viability, T/C [37] 94.8% | viability, T/C [38] 102% | viability, T/C [39] 99.4% | viability, T/C [40] 82.3% | viability, T/C [41] 74.7% | viability, T/C [42] 64.4% | viability, T/C [43] 81.7% | viability, T/C [44] 86.7% | viability, T/C [45] 84.1% | viability, T/C [46] 67.2% | viability, T/C [47] 75.5% | viability, T/C [48] 65.1% | viability, T/C [49] 17.7% | viability, T/C [50] 19% | viability, T/C [51] 14.9% | viability, T/C [52] 12.7% | viability, T/C [53] 15% | viability, T/C [54] 13.9%
active: viability, T/C [55] 1.12% | viability, T/C [56] 1.3% | viability, T/C [57] 0.99% | viability, T/C [58] 1.23% | viability, T/C [59] 1.33% | viability, T/C [60] 1.37%
< 31.6 nM: IC50 (second compound 3.16 µM) | IC50 (second compound 10 µM)
> 10000 nM: IC50 (second compound 0.1 µM) | IC50 (second compound 0.316 µM) | IC50 (second compound 1 µM)
